From a melting point compilation (Tetko et al.; mined from patent text by program, amines drawn as free bases though some values may be those of a salt)

| SMILES | melting point |
| --- | --- |
| CCOCc1nc2c(N)nc3cc(OCc4nc5ccccc5s4)ccc3c2n1CC(C)(C)NS(C)(=O)=O | 258 to 259 °C |
| CO[Si](OC)(OC)O[Si](OC)(OC)O[Si](OC)(OC)OC | < -70 °C |
| CCCCCCCCCCC(Cn1ccnc1)SCCCC (centres undefined) | 95 to 97 °C |
| CN(SC1(C)CCCC1=O)C(=O)ON=C1SC(C)(C)C(=O)N1C (centres undefined) | 119 to 121 °C |
| FC(F)(F)c1ccc(OC2CCCCO2)c(Sc2ccccc2)c1 (centres undefined) | 72 to 73 °C |
| Cc1c(NC(=O)c2ccc(-c3ccc4c(c3)OCO4)cc2F)ccc2cc(CN3CCCC3)cnc12 | 181 to 182 °C |
| Clc1cccc(-c2ccc(Cl)nn2)c1 | 155 to 157 °C |
| CC(C)(C)OC(=O)NC1Cc2ccc(NC(=O)c3ccccc3-c3ccc(C(F)(F)F)cc3)cc2C1 (centres undefined) | 198 to 201 °C |
| COc1ccc(C2CCN(c3c(C)c(C)c4c(c3C)[C@@H](c3ccc(C)cc3)C(C)(C)O4)CC2)cc1OC | 102 to 106 °C |
| Cc1ncn(-c2ccc(C=O)cc2)n1 | 125 to 128 °C |
| COc1cc2nc(S(=O)Cc3cc(N(C)C)c(Cl)cn3)[nH]c2cc1OC (centres undefined) | 164 to 165 °C |
| O=C(N[C@H]1CC[C@H](CCN2CCN(c3nccc4c3OCC4)CC2)CC1)c1ccc(N2CCOCC2)nc1 | 231 °C |
| COc1cc(-c2ncc(C(F)(F)F)cc2F)c(F)cc1Cl | 79 to 80 °C |
| CCCOc1ccccc1-c1nc2nc(SC)nnc2c(=O)[nH]1 | 247 to 249 °C |
| CCC(CC)N(C)Cc1ccc(NC(=O)C2=Cc3cc(-c4ccc(C)cc4)ccc3SCC2)cc1 | 136 to 137 °C |
| O=C(Oc1ccc(C(=C2CCCCC2)c2ccc(OC(=O)c3ccccc3)c(OC(=O)c3ccccc3)c2)cc1OC(=O)c1ccccc1)c1ccccc1 | 176 °C |
| O=CN1CCC23CC(=O)CCC2C1Cc1cccc(O)c13 (centres undefined) | 260 to 262 °C |
| CCc1nc2c(cnn2CC)c(NC2CCOCC2)c1CNC(=O)c1cc(C)cc(C(=O)NCc2ccc(OC)c(-c3cccc(CN4CCNC(C)C4)c3)c2)c1 (centres undefined) | 121 to 123 °C |

Now from value to molecule:

| melting point | SMILES |
| --- | --- |
| 188 to 189 °C | CSc1c(OCC(=O)O)ccc2c3ccccc3n(Cc3ccccc3)c12 |
| 48 to 50 °C | OC[C@H]1O[C@@H]1c1cc(F)cc(F)c1 |
| 184 to 185 °C | O=C(O)Cc1ccc(NC(=O)C(Cc2ccccc2)NS(=O)(=O)c2ccc(Br)cc2)cc1 (racemic) |
| 121 to 122 °C | N#Cc1cc(F)ccc1O |
| 156 to 158 °C | COC(=O)c1cccc(CN2CCc3cc(O)c(OC)cc3C2)c1 |
| 130 to 134 °C | COC(=O)c1ccc(Oc2ccc(O)cc2)cc1 |
| 178 to 179 °C | CCn1ncc2c(C(F)(F)F)cc(=O)[nH]c21 |
| 197 to 198 °C | CC(C)COC(=O)c1ccc2nc(N)n(S(=O)(=O)N(C)C)c2c1 |
| 200 to 201 °C | O=C(c1ccc(O)cc1)c1cccc(O)c1 |
| > 240 °C | Cc1c(S(=O)(=O)c2ccc(=O)[nH]n2)oc2cc(Cl)ccc12 |
| 102 to 104 °C | N#Cc1cccc(N2CCc3cc(OCc4ccccc4)ccc32)c1 |
| 100 °C | Brc1ccc(/C=N/c2ccccc2)c(OCc2ccccc2)c1 |
| 63 to 64 °C | CC(=O)OC[C@H]1CCn2c(cc3ccccc32)C1 |
| 123 to 124 °C | CCOC(=O)C(Cc1ccccc1)NC(=O)N1CCc2cc(S(=O)(=O)N3CCN(c4cccc(Cl)c4)CC3)ccc21 (centres undefined) |
| 201 to 203 °C | CCOCc1nc2c(N)nc3ccccc3c2n1CCCC(=O)N1CCOCC1 |
| 46 to 47 °C | CCOC(=O)CCCC(=O)c1ccc(F)cc1 |
| 125 to 126 °C | CCCCCCCNC(=O)N(C)c1cccc(-c2ccc(C=CC(=O)O)cc2)c1 |
| 162 to 164 °C | Nc1c(O)c(Br)cc(Br)c1C(=O)O |
| 99 to 100 °C | COC(=O)c1cc(C)cc(CNO)c1 |
| 193 to 194 °C | CC(=O)NC(=Cc1ccccc1)C1=NC(=Cc2ccc(C)s2)C(=O)O1 |
| 197 to 198 °C | O=C(O)COc1ccc(Cl)cc1-c1ccc(C(=O)N2CCCC2)c(C(F)(F)F)c1 |
